1 molecule from patent US11071731B2, “Allosteric modulators of the mu opioid receptor” (Chiromics, LLC, priority 2017, dated 2021) can be followed below.

For data set [1], the target named is T1, MOR (Homo sapiens, UniProt P35372). The format is cell-based. The note with it: β-arrestin; EC20 EM2 agonism of MOR.
Data set [2] can be described thus: Plasma, brain and spinal cord concentrations after subcutaneous dosing. Conditions: subcutaneous 15 mg/kg, ICR rats. The class given is in vivo. As for the experimental part: Concentrations of subcutaneously injected compound 9 in spinal tissue (where the DRG are located) were also assessed.
A short description of data set [3]: Terminal pharmacokinetics: plasma, brain and cerebrospinal fluid concentrations. The format is in vivo. The note with it: one hour after 15 mg/kg SC or IP, CD-1 mice. As for the experimental part:
Given that opioid receptors are highly concentrated in the dorsal root ganglion (DRG) and brain (Martin-Schild et al., supra), terminal pharmacokinetic studies were performed to verify the concentration in the plasma, cerebrospinal fluid and brain.

For the next data set, the system named is CD1 mice. The data set is described as follows: Warm water tail-flick assay, compound alone (basal EM1 only). The format is in vivo. The note with it: 15 mg/kg subcutaneous, 30 minutes after dosing, no exogenous EM1. From the text:
An acute pain model was used to determine the analgesic effect of a MOR PAM administered by itself (i.e., in the absence of exogenous opioid). This approach avoids the complexity of matching the pharmacokinetic profile of endomorphin release in response to a pain-inducing insult with a (1) particular MOR PAM (to account for basal endomorphin analgesis) and (2) the measurement window of the study, as would be required for a chronic pain study. Accordingly, an acute pain model, in which the pharmacodynamic measurement was performed directly after the insult, was employed. This was expected to isolate the low basal levels of EM1 analgesis that existed prior to the insult, thereby eliminating the contribution of the time course of release of endogenous opioids in response to the insult. Mousa et al., supra.
The warm water tail-flick assay was chosen as the acute pain model for the reasons described above. […] Przewlocka et al., (1999), supra. First, minimum and sub-efficacious dose of EM1, applied via intrathecal injection to rats, were identified. […] In addition, the time required for maximal response to an intrathecal injection of EM1 to be observed, as well as the time required for a return to basal levels of antinociception, were determined and likewise found to be in agreement with those found in the literature. […]
In general terms: Thermal pain tests record how soon the animal reacts.

The subject of a further data set is Sprague-Dawley rats. Kind of data set: Respiratory depression: blood oxygen saturation by pulse oximetry. The note with it: subcutaneous; morphine 10 mg/kg, compound 9 15, 30, 60 mg/kg; 90 minutes. The class given is in vivo. As to the method:
Respiratory depression is a significant side effect associated with opioid treatment of acute and chronic pain. Drug-related overdose deaths are often a function of the respiratory depression which occurs with opioid use. Efforts to generate analgesics that dissociate pain relief from side effects are critical to the advancement of public health. […] […].
Blood oxygen saturation was assessed in awake rats with the MouseOx oximeter system (Starr Life Sciences, Holliston, Mass.). Up to 5 samples were measured every 5 minutes for 15 minutes prior to dosing and 90 minutes after dosing. Each animal was habituated to the device over several days prior to the study.

In data set [4] the target is T1, MOR. The data set is described as follows: cell-based. Conditions: EC20 Oxycodone agonism of MOR.
The target of data set [5] is T1, MOR. Kind of data set: cell-based. The note with it: EC20 morphine agonism of MOR.
In data set [6] the target is T1, MOR. The data set is described as follows: cell-based. The note with it: EC20 Oxycodone agonism of MOR. The source holds these as a separate data set.
Data set [7] concerns the target T1, MOR. The format is cell-based.
Another data set relates to ICR rats. The data set is described as follows: Warm water tail-flick assay with intrathecal exogenous EM1. The class given is in vivo. As for the experimental part: The warm water tail-flick assay was chosen as the acute pain model for the reasons described above. […] Przewlocka et al., (1999), supra. First, minimum and sub-efficacious dose of EM1, applied via intrathecal injection to rats, were identified. The values obtained for the minimum (3 ug/kg) and sub-efficacious dose of EM1 (1 ug/kg) are in agreement with those found in the literature. Horvath (2000), supra. In addition, the time required for maximal response to an intrathecal injection of EM1 to be observed, as well as the time required for a return to basal levels of antinociception, were determined and likewise found to be in agreement with those found in the literature.
. For these experiments, the delay in tail flick induced by EM1 alone was compared to the delay in tail flick when compound 9 was dosed in ICR-rats in combination with intrathecal administration of minimum and sub-efficacious doses of EM1. […]; These effects might be due to any of the following: Ton[Endomorphin], KElim[Endomorphin], Toff[Endomorphin], KI[Endomorphin], and possibly additional mechanisms.
[…]. The ability to rescue a sub-therapeutic dose of the endogenous ligand in a dose- and time-dependent manner with a subtype selective MOR PAM has significant implications for the clinical viability of the use of MOR PAMs in acute and chronic pain settings.

The target of the next data set is mu opioid receptor (MOR) (Homo sapiens, UniProt P35372). The data set is described as follows: PathHunter β-arrestin recruitment assay, PAM mode with EC20 endomorphin-1. The format is cell-based. The procedure, abridged: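 Enzyme fragment complementation read-out: β-gal ED fragment fused to receptor, EA fused to β-arrestin, recruitment restoring β-gal activity detected by chemiluminescence. EC50 and percent maximal response derived for each compound.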
Sequence of mu opioid receptor (MOR) (P35372 whole entry, the tested form may be a part): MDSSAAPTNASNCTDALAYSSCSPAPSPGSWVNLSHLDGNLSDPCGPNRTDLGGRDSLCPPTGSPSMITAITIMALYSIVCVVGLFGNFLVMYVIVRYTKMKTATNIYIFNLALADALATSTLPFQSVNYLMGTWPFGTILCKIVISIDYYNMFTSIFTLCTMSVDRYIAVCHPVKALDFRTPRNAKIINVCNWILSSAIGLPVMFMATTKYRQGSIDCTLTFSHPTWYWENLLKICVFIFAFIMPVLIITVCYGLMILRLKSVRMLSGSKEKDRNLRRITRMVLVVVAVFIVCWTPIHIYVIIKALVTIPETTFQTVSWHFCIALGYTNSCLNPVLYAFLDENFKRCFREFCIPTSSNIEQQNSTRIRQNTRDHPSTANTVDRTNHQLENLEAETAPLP

The structures appear in SMILES notation. Where two headings read alike, the source gives them in different places.

T1 sequence (P35372 whole entry): as the sequence (P35372 whole entry, the tested form may be a part) above

Take `Fc1cnc(Cl)nc1N1CCCCC1c1cccc(C(F)(F)F)c1` (single isomer, unassigned) [compound 9]: the “Max. Response” value on MOR [1] amounted to 138; on MOR [4] (β-arrestin), 296; on MOR [5] (β-arrestin), 456; on MOR [6] (cAMP), 40; at mu opioid receptor (MOR) (β-arrestin, EC20 EM-1 agonism of MOR), 210. The “exposure in spinal tissue and brain” value in data set [2] was “good exposures in spinal tissue”. In addition, the “persistence in brain and plasma” value in data set [3] was “persists in brain and plasma, at therapeutically relevant concentrations”. Moreover, the “antinociceptive effect, tail-flick latency” value in the data set on CD1 mice is listed as “No antinociceptive effects were observed”. Besides, in the data set with Sprague-Dawley rats, the “oxygen saturation / respiratory depression” value was “did not induce respiratory depression”. The EC50 on MOR [4] (RC50, β-arrestin) was 11.1 µM; at MOR [5] (RC50, β-arrestin) it was 10.7 µM; on MOR [6] (RC50, cAMP), 3.18 µM; at mu opioid receptor (MOR) (EM1-mediated MOR agonism, read-out: RC50 for β-arrestin recruitment), 0.36 µM; on mu opioid receptor (MOR) (β-arrestin recruitment, read-out: β-arr. EC50), below 0.7 µM. Further, the “shift in the potency of EM1” value at MOR [7] (cAMP assay) is “concentration-dependent and saturable leftward shifts”. In addition, the “factor of increase of the affinity (α) of EM1” value at MOR [7] (cAMP signaling) worked out at 2. Besides, at MOR [7] (cAMP signaling), the “factor of increase of the efficacy (β) of EM1” value came out at 1.8. At MOR [7] (cAMP signaling, EM1), the “effective potency for PAM effect” value turned out to be 0.044 µM. In addition, the “effect on antinociception of a minimally efficacious dose of EM1” value in the data set on ICR rats (rat, in vivo) was “potentiates the effect of suboptimal doses of EM-1”. Besides, in the data set with ICR rats (rat, in vivo), the “effect on antinociception of a sub-efficacious dose of EM1” value is given as “potentiates the effect of sub-efficaceous doses of the opioid”. For the same molecule, the “αβ product, in vivo effects fit” value in the data set with ICR rats (tail-flick, EM1 3 μg intrathecal (FIG. 12C)) came out at 31.5. Moreover, on mu opioid receptor (MOR) (maximal response for β-arrestin recruitment), the “β-arr Max. Resp.” value was “F (F represents a maximal response of > 60%)”.
